According to PMC8781960, “Structural Basis of 2-Phenylamino-4-phenoxyquinoline Derivatives as Potent HIV-1 Non-Nucleoside Reverse Transcriptase Inhibitors” (Molecules, 2022):
Marks after values point to notes of the source that are not given here.

Tests used:
HIV-1 RT = target: T1, HIV-1 RT (Human immunodeficiency virus type 1 group M subtype B, UniProt P03366); experiment: HIV-1 RT inhibition assay (Roche RT kit, colorimetric ELISA); format: biochemical; conditions: for inhibition at 1 µM: read-out: Inhibitory activities (%) against HIV-1 RT
T1 construct: The reaction mixture consisted of template/primer complex, 2′-deoxy-nucleotide-5′-triphosphates (dNTPs), and RT enzyme in lysis buffer; purchased Roche Applied Science, Mannheim, Germany
Description: The inhibition assay of HIV-1 RT was accomplished using the template/primer hybrid poly(A) × oligo(dT)15, digoxigenin (DIG)- and biotin-labeled nucleotides, an antibody to DIG that was conjugated to peroxidase (anti-DIG-POD), and the peroxidase substrate ABTS. The quantities of DIG- and biotin-labeled dUTP incorporated into DNA represent t HIV-1 RT activity. The HIV-RT inhibition assay was implemented using an RT assay kit (Roche Applied Science, Mannheim, Germany), and the procedures for assaying RT inhibition were performed as described in the kit protocol. […] The reaction mixture consisted of template/primer complex, 2′-deoxy-nucleotide-5′-triphosphates (dNTPs), and RT enzyme in lysis buffer with or without an inhibitor. […] The biotin-labeled dNTPs that were incorporated in the template bound to streptavidin because of the presence of RT. Unbound dNTPs were washed using a wash buffer, and anti-DIG-POD was added to the MTP. The DIG-labeled dNTPs incorporated in the template bound to the anti-DIG-POD antibody. Unbound anti-DIG-POD was also washed elaborately five times using a wash buffer. Finally, the peroxide substrate (ABST) was added to the MTP. A colored reaction product emerged during the cleavage of the substrate catalyzed by […]. The absorbance of the sample was measured at the optical density (OD) at 490 nm using the MTP (enzyme-linked immunosorbent assay [ELISA]) reader. The percentage inhibitory activities of the RT inhibitors were calculated by comparing with that of the sample without an inhibitor. The resulting color intensity was directly proportional to the RT activity. Percentage inhibitory values were calculated using the following formula: Inhibition (%) = [1–(OD value with RT and inhibitor−OD value without RT and inhibitors)/(OD value without inhibitors with RT−OD value without RT and inhibitors)] × 100.

[1] = test system: H69AR (lung cancer, multidrug resistant); experiment: In vitro cytotoxicity (MTT); format: cell-based, human; conditions: for IC50: Homo sapiens, H69AR, mean ± standard error
Protocol: Background control wells contained the same volume as the complete culture medium. […] The reagent was dissolved in phosphate-buffered saline at 5 mg/mL and filtered to sterilize and remove the small amount of insoluble residue present in some batches of MTT. […] Subsequently, dimethyl sulfoxide (100 µL; Merck, Germany) was added to dissolve the resulting formazan by sonication. The plates were read on a microplate reader (Molecular Devices, CA, USA) using a test wavelength of 550 nm and a reference wavelength of 650 nm.

[2] = test system: MOLT-3 (acute lymphoblastic leukemia); experiment: In vitro cytotoxicity (XTT); conditions: for IC50: Homo sapiens, MOLT-3, 48 h, read-out: IC50 MOLT-3
Protocol: (§1) Background control wells contained the same volume as the complete culture medium. […] Samples at various concentrations were added to the microplate and incubated for another 48 h. Cell viability was determined by 3(4,5-dimethylthiazol-2-yl)-2-5-diphenyl tetrazolium bromide (MTT) assay (Sig-ma-Aldrich). The reagent was dissolved in phosphate-buffered saline at 5 mg/mL and filtered to sterilize and remove the small amount of insoluble residue present in some batches of MTT. […] Subsequently, dimethyl sulfoxide (100 µL; Merck, Germany) was added to dissolve the resulting formazan by sonication. The plates were read on a microplate reader (Molecular Devices, CA, USA) using a test wavelength of 550 nm and a reference wavelength of 650 nm. XTT assay for suspension cells was used for MOLT-3 cells.

[3] = test system: MRC-5 (normal embryonic lung cell); experiment: In vitro cytotoxicity (MTT), normal cell line; conditions: for IC50: Homo sapiens, MRC5, 48 h, read-out: IC50 MRC-5
Protocol: as §1

[4] = test system: HeLA (cervical carcinoma); experiment: In vitro cytotoxicity (MTT); conditions: for IC50: Homo sapiens, HeLa, read-out: IC50 HeLA
Protocol: as §1

HepG2 (hepatocarcinoma) = experiment: In vitro cytotoxicity (MTT); conditions: for IC50: Homo sapiens, HepG2, 48 h, read-out: IC50 HepG2
Protocol: as §1

S102 (Thai liver cancer) = experiment: In vitro cytotoxicity (MTT); conditions: for IC50: Homo sapiens, read-out: IC50 S102
Protocol: as §1

A549 (lung carcinoma) = experiment: In vitro cytotoxicity (MTT); conditions: for IC50: Homo sapiens, A549, 48 h, read-out: IC50 A549
Protocol: as §1

[5] = test system: MDA-MB-231 (hormone-independent breast cancer); experiment: In vitro cytotoxicity (MTT); conditions: for IC50: Homo sapiens, MDA-MB-231, 48 h, read-out: IC50 MDA-MB-231
Protocol: as §1

HL-60 (promyeloblast) = experiment: In vitro cytotoxicity (MTT); conditions: for IC50: Homo sapiens, HL-60, 48 h, read-out: IC50 HL-60
Protocol: as §1

[6] = test system: T47-D (hormone-dependent breast cancer); experiment: In vitro cytotoxicity (MTT); conditions: for IC50: Homo sapiens, T47D, read-out: IC50 T47-D
Protocol: as §1

[7] = test system: HuCCA-1 (cholangiocarcinoma); experiment: In vitro cytotoxicity (MTT); conditions: for IC50: Homo sapiens, HuCC-A1, 48 h, read-out: IC50 HuCCA-1
Protocol: as §1

[8] = normal cell line, at 50 µg/mL, inactive (IC50 ≥ 50 µg/mL)
[9] = at 50 µg/mL, inactive (IC50 ≥ 50 µg/mL)

Row | Compound | %C percentage cytotoxicity H69AR ([1]; human, 48 h, 50 µg/mL) | IC50 [2] [µM] | inhibition at 1 µM (HIV-1 RT) [%] | %C percentage cytotoxicity MRC-5 [3, 8] | IC50 ([4]; 48 h) [µM] | %C percentage cytotoxicity HepG2 (HepG2 (hepatocarcinoma); [9]) | %C percentage cytotoxicity S102 (S102 (Thai liver cancer); [9]) | %C percentage cytotoxicity A549 (A549 (lung carcinoma); [9]) | %C percentage cytotoxicity MDA-MB-231 [5, 9] | %C percentage cytotoxicity HL-60 (HL-60 (promyeloblast); [9]) | %C percentage cytotoxicity T47-D [6, 9] | %C percentage cytotoxicity HuCCA-1 [7, 9] | %C percentage cytotoxicity MOLT-3 [2, 9] | %C percentage cytotoxicity HeLA [4, 9] | IC50 ([1]; 48 h) [µM] | IC50 (HepG2 (hepatocarcinoma)) [µM] | IC50 (S102 (Thai liver cancer); 48 h) [µM] | IC50 [5] [µM] | IC50 (HL-60 (promyeloblast)) [µM] | IC50 ([6]; 48 h) [µM] | also measured
1 | 4,4′-di-(2’,6’-Dimethyl-4’-formylphenoxy)-2,2′-biquinoline [Compound 7b] | – | – | – | – | – | – | – | – | – | – | – | – | – | – | – | – | – | – | – | – | Inhibitory activities (%) against HIV-1 RT (HIV-1 RT; 1 µM, mean ± standard error): 30.3 ± 2.3%
2 | Cc1cc(/C=C\C#N)cc(C)c1Oc1cc(Nc2ccc(C#N)cc2)nc2ccccc12 [Compound 9b-cis, 4-(4′-(2″-(E, Z)-cyanovinyl)-2′,6′-dimethyl-phenoxy)-2-(4″-cyanophenyl)-aminoquinoline] | %C = 0.0 ^c | 52.8 ± 2.1 | 32.5 ± 2.8 | %C = 0.0 ^c | 97.2 ± 5.1 | %C = 9.8 ^c | %C = 0.0 ^c | %C = 1.0 ^c | %C = 10.0 ^c | %C = 42.0 ^c | %C = 5.0 ^c | %C = 10.0 | – | – | – | – | – | – | – | – | –
3 | Cc1cc(/C=C/C#N)cc(C)c1Oc1cc(Nc2ccc(C#N)cc2)nc2ccccc12 [Compound 9b-trans, 4-(4′-(2″-(E, Z)-cyanovinyl)-2′,6′-dimethyl-phenoxy)-2-(4″-cyanophenyl)-aminoquinoline] | %C = 14.0 ^c | – | 35.9 ± 3.1 | %C = 28.4 ^c | – | %C = 42.9 ^c | %C = 0.0 ^c | %C = 8.0 ^c | %C = 24.9 ^c | %C = 17.0 ^c | %C = 0.0 ^c | %C = 8.0 ^c | %C = 19.0 ^c | %C = 38.0 ^c | – | – | – | – | – | – | –
4 | Cc1cc(/C=C\C#N)cc(C)c1Oc1cc(Nc2ccc(C#N)cn2)nc2ccccc12 [Compound 10b-cis, 4-(4′-(2″-(E, Z)-cyanovinyl)-2′,6′-dimethyl-phenoxy)-2-(5″-cyanopyridin-2″ylamino)-aminoquinoline] | %C = 0.0 ^c | – | 29.4 ± 3.6 | %C = 0.0 ^c | – | %C = 0.0 ^c | %C = 0.0 ^c | %C = 0.0 ^c | %C = 0.0 ^c | %C = 5.0 ^c | %C = 0.0 ^c | %C = 0.0 ^c | %C = 11.0 ^c | %C = 0.0 ^c | – | – | – | – | – | – | –
5 | Cc1cc(/C=C/C#N)cc(C)c1Oc1cc(Nc2ccc(C#N)cn2)nc2ccccc12 [Compound 10b-trans, 4-(4′-(2″-(E, Z)-cyanovinyl)-2′,6′-dimethyl-phenoxy)-2-(5″-cyanopyridin-2″ylamino)-aminoquinoline] | %C = 0.0 ^c | – | 32.4 ± 3.5 | %C = 0.0 ^c | – | %C = 1.0 ^c | %C = 3.1 ^c | %C = 1.0 ^c | %C = 17.0 ^c | %C = 31.0 ^c | %C = 0.0 ^c | %C = 0.0 ^c | %C = 2.0 ^c | %C = 10.0 ^c | – | – | – | – | – | – | –
6 | COc1cccc2c1C(=O)c1c(O)c3c(c(O)c1C2=O)C[C@@](O)(C(=O)CO)C[C@@H]3O[C@H]1C[C@H](N)[C@H](O)[C@H](C)O1 [Doxorubicin, reference compound] | – | 0.02 | – | – | 0.4 | – | – | – | – | – | – | – | – | – | 34.3 ± 0.1 | 0.6 | 2.2 | 2.5 ± 0.1 | 0.1 | 1.2 | IC50 [3]: 3.1 ± 0.5 µM; IC50 (A549 (lung carcinoma)): 0.6 µM; IC50 [7]: 0.9 µM
7 | O=C1Nc2ccc(Cl)cc2[C@@](C#CC2CC2)(C(F)(F)F)O1 [EFV, efavirenz, reference compound] | – | 24.6 ± 1.2 | – | – | 46.2 ± 1.3 | – | – | – | – | – | – | – | – | – | 105 ± 3.4 | 86.6 ± 3.9 | 93.5 ± 4.7 | 77.7 ± 5.6 | 33.7 ± 1.1 | 59.2 ± 0.8 | IC50 [3]: 95.6 ± 6 µM; IC50 (A549 (lung carcinoma)): 60.2 ± 1.8 µM; IC50 [7]: 59.6 ± 2.4 µM
8 | COc1cc([C@@H]2c3cc4c(cc3[C@@H](O[C@@H]3O[C@@H]5CO[C@@H](C)O[C@H]5[C@H](O)[C@H]3O)[C@H]3COC(=O)[C@H]23)OCO4)cc(OC)c1O [Etoposide, etoposide, reference compound] | – | 0.03 | – | – | – | – | – | – | – | – | – | – | – | – | – | 49.9 ± 1.1 | – | – | 0.8 ± 0.1 | – | –
9 | Cc1ccnc2c1NC(=O)c1cccnc1N2C1CC1 [NVP, nevirapine, reference compound] | – | – | 53.4 ± 2.7 | – | – | – | – | – | – | – | – | – | – | – | – | – | – | – | – | – | %C percentage cytotoxicity H69AR [1, 9]: %C = 8.0 ^c; %C percentage cytotoxicity MOLT-3 ([2]; human, 48 h, 50 µg/mL): %C = 29.0 ^c; %C percentage cytotoxicity MRC-5 ([3]; human, 48 h, 50 µg/mL): %C = 1.0 ^c; %C percentage cytotoxicity HeLA ([4]; human, 48 h, 50 µg/mL): %C = 34.0 ^c; %C percentage cytotoxicity HepG2 (HepG2 (hepatocarcinoma); human, 48 h, 50 µg/mL): %C = 15.4 ^c; %C percentage cytotoxicity S102 (S102 (Thai liver cancer); human, 48 h, 50 µg/mL): %C = 3.0 ^c; %C percentage cytotoxicity A549 (A549 (lung carcinoma); human, 48 h, 50 µg/mL): %C = 18.0 ^c; %C percentage cytotoxicity MDA-MB-231 ([5]; human, 48 h, 50 µg/mL): %C = 8.9 ^c; %C percentage cytotoxicity HL-60 (HL-60 (promyeloblast); human, 48 h, 50 µg/mL): %C = 3.0 ^c; %C percentage cytotoxicity T47-D ([6]; human, 48 h, 50 µg/mL): %C = 14.0 ^c; %C percentage cytotoxicity HuCCA-1 ([7]; human, 48 h, 50 µg/mL): %C = 11.0 ^c
10 | Cc1cc(/C=C/C#N)cc(C)c1Nc1ccnc(Nc2ccc(C#N)cc2)n1 [RPV, rilpivirine, reference compound] | – | 4.3 ± 0.5 | 97.1 ± 0.9 | %C = 14.4 ^c | 11.3 ± 1.2 | – | – | %C = 42.0 ^c | – | – | – | – | – | – | 57.1 ± 2 | 87.4 ± 0.1 | 22.5 ± 1.2 | 25.3 ± 2.9 | 11.5 ± 0.8 | 15 ± 1.3 | IC50 (HIV-1 RT): 0.06 µM; cytotoxicity toward normal embryonic lung (MRC-5) cells, in words [3]: very low cytotoxicity; IC50 [7]: 61.3 ± 1.7 µM
